Data reported in patent US6914045B2, “Glycopeptide antibiotics” (Wyeth Holdings Corporation, priority 2001, dated 2005).

Experiments:
Test in all cases: in vitro antibacterial evaluation, MIC by broth dilution
Assay type in all cases: cell-based
Settings in all cases: broth dilution, 18 hours at 35° C.
Escherichia coli = system: Escherichia coli
Procedure, shortened: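 Broth dilution in Muller-Hinton II medium per NCCLS standard M7-A2, with an inoculum of 5×10^5 CFU/mL and antibiotic tested over 64-0.06 μg/mL. MIC was taken as the lowest concentration inhibiting visible growth.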

Streptococcus sp. = system: Streptococcus sp.
Procedure, shortened: (§1)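 Inoculum 5×10^5 CFU/mL; concentrations 64 to 0.06 μg/mL; MIC defined as lowest inhibitory level. Conducted by broth dilution under NCCLS guidelines.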

Enterococcus sp. = system: Enterococcus sp.
Procedure, shortened: as §1

Staphylococcus sp. = system: Staphylococcus sp.
Procedure, shortened: as §1

CC(C1CCCCC1)C1NC(=O)CNC(=O)C(CO)NC(=O)C(C(O)C2CNC(=N)N2C2OC(CO)C(O)C(O)C2O)NC(=O)C(C(O)C2CNC(=N)N2)NC(=O)C(C[C@H]2CC[C@@H](O)CC2)NC1=O (stereo partly drawn) [Example 54, Cyclo[3-(syn-4-hydroxycyclohexyl)alanyl-3-(2-ininoimidazolidin-4-yl)seryl-3-(3-hexopyranosyl-2-iminoimidazolidin-4-yl)serylserylglycyl-3-cyclohexyl-2-aminobutanoyl]]
>128 µg/mL: MIC Escherichia coli (ATCC 25922) (Escherichia coli; strain ATCC 25922) | MIC Escherichia coli (GC 4559) (Escherichia coli; strain GC 4559) | MIC Escherichia coli (GC 4560) (Escherichia coli; strain GC 4560) | MIC Streptococcus pneumoniae (ATCC 6301) (Streptococcus sp.; strain ATCC 6301) | MIC Streptococcus pyogenes (GC 4563) (Streptococcus sp.; strain GC 4563) | MIC Streptococcus agalactiae (GC 4564) (Streptococcus sp.; strain GC 4564) | MIC Streptococcus pneumoniae (GC 4565) (Streptococcus sp.; strain GC 4565) | MIC Enterococcus faecalis (ATCC 29212) (Enterococcus sp.; Enterococcus faecalis (ATCC 29212)) | MIC Enterococcus faecalis (GC 4552) (Enterococcus sp.; Enterococcus faecalis (GC 4552)) | MIC Enterococcus faecalis (GC 4553) (Enterococcus sp.; Enterococcus faecalis (GC 4553)) | MIC Enterococcus faecalis (GC 4554) (Enterococcus sp.; Enterococcus faecalis (GC 4554)) | MIC Enterococcus faecalis (GC 6189) (Enterococcus sp.; Enterococcus faecalis (GC 6189)) | MIC Enterococcus faecium (GC 2243) (Enterococcus sp.; Enterococcus faecium (GC 2243)) | MIC Enterococcus faecium (GC 4556) (Enterococcus sp.; Enterococcus faecium (GC 4556)) | MIC Enterococcus faecalis (ATCC 29212) (Enterococcus sp.; strain ATCC 29212) | MIC Enterococcus faecalis (GC 2242) (Enterococcus sp.; strain GC 2242) | MIC Enterococcus faecium (GC 2243) (Enterococcus sp.; strain GC 2243) | MIC Enterococcus faecalis (GC 2691) (Enterococcus sp.; strain GC 2691) | MIC Enterococcus faecalis (GC 3059) (Enterococcus sp.; strain GC 3059) | MIC Enterococcus faecalis (GC 4552) (Enterococcus sp.; strain GC 4552) | MIC Enterococcus faecalis (GC 4553) (Enterococcus sp.; strain GC 4553) | MIC Enterococcus faecalis (GC 4554) (Enterococcus sp.; strain GC 4554) | MIC Enterococcus faecium (GC 4556) (Enterococcus sp.; strain GC 4556) | MIC Enterococcus faecalis (GC 6189) (Enterococcus sp.; strain GC 6189) | MIC Staphylococcus aureus (ATCC 29213) (Staphylococcus sp.; strain ATCC 29213) | MIC Staphylococcus aureus (GC 1131) (Staphylococcus sp.; strain GC 1131) | MIC Staphylococcus aureus (GC 3051) (Staphylococcus sp.; strain GC 3051) | MIC Staphylococcus aureus (GC 3053) (Staphylococcus sp.; strain GC 3053) | MIC Staphylococcus aureus (GC 4541) (Staphylococcus sp.; strain GC 4541) | MIC Staphylococcus aureus (GC 4542) (Staphylococcus sp.; strain GC 4542) | MIC Staphylococcus aureus-SMITH (GC 4543) (Staphylococcus sp.; strain GC 4543) | MIC Staphylococcus aureus (GC 4544) (Staphylococcus sp.; strain GC 4544) | MIC Staphylococcus aureus (GC 4545) (Staphylococcus sp.; strain GC 4545) | MIC Staphylococcus haemolyticus (GC 4546) (Staphylococcus sp.; strain GC 4546) | MIC Coagulase Negative Staphylococcus (GC 4547) (Staphylococcus sp.; strain GC 4547) | MIC Coagulase Negative Staphylococcus (GC 4548) (Staphylococcus sp.; strain GC 4548) | MIC Coagulase Negative Staphylococcus (GC 4549) (Staphylococcus sp.; strain GC 4549) | MIC Coagulase Negative Staphylococcus (GC 4551) (Staphylococcus sp.; strain GC 4551)
128 µg/mL: MIC Streptococcus pneumoniae (GC 1894) (Streptococcus sp.; strain GC 1894) | MIC Enterococcus avium (GC 4558) (Enterococcus sp.; Enterococcus avium (GC 4558)) | MIC Enterococcus faecium (GC 4557) (Enterococcus sp.; Enterococcus faecium (GC 4557)) | MIC Enterococcus faecium (GC 4557) (Enterococcus sp.; strain GC 4557) | MIC Enterococcus avium (GC 4558) (Enterococcus sp.; strain GC 4558)
